This note sets out measurements from patent US20230019094A1, “NOVEL COMPOUND AND PHARMACEUTICAL COMPOSITION FOR PREVENTION OR TREATMENT OF CANCER COMPRISING SAME” (HOLOSMEDIC, priority 2019, published 2023).

Holding throughout (format): cell-based
In assay [1] the test system is SKOV3-TR. The assay is described as follows: Crystal violet staining, cell survival rate and cell count, resistant line. Conditions: 3 days; for anticancer-enhancing effect of doxetaxel, optical density at 570 nm (crystal violet) / anticancer-enhancing effect of paclitaxel, optical density at 570 nm (crystal violet): S-form 0.5 μM or 2 μM pretreated 4 hours; for anticancer-enhancing effect of doxetaxel, optical density at 570 nm (crystal violet): then 0.9 μM doxetaxel, compared to doxetaxel+ethanol group; for anticancer-enhancing effect of paclitaxel, optical density at 570 nm (crystal violet): then 4 μM paclitaxel, compared to paclitaxel+ethanol group; for optical density at 570 nm (crystal violet), anticancer drug alone: 4 μM paclitaxel or 0.9 μM doxetaxel, compared to None or DMSO-treated groups. Here is the method: (§1) The two cancer cell lines growing on a 12-well plate were pretreated with 102 S-forms at a low concentration (0.5 μM) and a high concentration (2 μM) for 4 hours, and the SKOV3-TR cell line was then treated with 4 μM paclitaxel, and the SKOV3 cell line was treated with 0.05 μM paclitaxel. For the morphological analysis of the cells, the cells treated with None (a group that was treated with nothing), DMSO (a paclitaxel solvent), ethanol (EtOH) (an S-form solvent), DMSO+EtOH, paclitaxel, paclitaxel+ethanol (Pacli+EtOH), and 102 S-forms were analyzed after 1, 2, and 3 days, and images were captured. For cellular metabolism analysis, WST-1 analyses were performed after 3 days of the combined treatment with paclitaxel and S-forms. The cell survival rates were analyzed on the same experimental groups using a crystal violet staining method.
The two cell lines growing on a 12-well plate were pretreated with an S-form at a low concentration (0.5 μM) and a high concentration (2 μM) for 4 hours, and the SKOV3-TR cell line was then treated with 0.9 μM doxetaxel, and the SKOV3 cell line was treated with 0.5 μM doxetaxel. For the morphological analysis of the cells, the cells treated with None (a group that was treated with nothing), DMSO (a doxetaxel solvent), ethanol (EtOH) (an S-form solvent), DMSO+EtOH, doxetaxel, doxetaxel+ethanol (Doxetaxel+EtOH), and S-forms were analyzed after 1, 2, and 3 days, and images were captured. For cellular metabolism analysis, WST-1 analyses were performed after 3 days of the combined treatment with doxetaxel and S-forms. The cell survival rates were analyzed on the same experimental groups using a crystal violet staining method.
Based on the crystal violet staining in which the cell survival rates and the cell counts were analyzed, a decrease in cell counts in SKOV3-TR and SKOV3 by treatment with paclitaxel was induced through a decrease in cell survival rate. […] The crystal violet staining results of SKOV3-TR by treatment with paclitaxel are shown in FIG. 11, and the crystal violet staining results of SKOV3 are shown in FIG. 12. The crystal violet staining results of SKOV3-TR by treatment with doxetaxel are shown in FIG. 25, and the crystal violet staining results of SKOV3 are shown in FIG. 26.
The optical densities at 570 nm were reduced with the decreasing cell counts in the paclitaxel-treated groups due to the phenomena such as the induction of cell death and the inhibition of cell growth in SKOV3-TR and SKOV3, compared to the None or DMSO-treated groups. […] Also, it can be seen that the dose-response relationship was satisfied because a decrease in cell survival rate by paclitaxel in SKOV3-TR was further promoted at a high concentration (2 μM) of the S-forms as compared to a low concentration (0.5 μM) of the S-forms. For the purpose of analysis, images of the 102 experimental groups after the cell lines were stained with crystal violet were captured after 3 days of the treatment. The staining degree was determined by ELISA by measuring the optical densities at 570 nm through dye elution as in the WST-1 analysis. During the ELISA analysis, the baseline was applied to the optical density of the paclitaxel+ethanol (Pacli+EtOH)-treated group as the control group. The optical density results of SKOV3-TR by treatment with the 102 S-forms and the optical density results of SKOV3 by treatment with the 102 S-forms are shown in FIGS. 13 to 20.
The optical densities at 570 nm were reduced with the decreasing cell counts in the doxetaxel-treated groups due to the phenomena such as the induction of cell death and the inhibition of cell growth in SKOV3-TR and SKOV3, compared to the None or DMSO-treated groups. […] Also, it can be seen that the dose-response relationship was satisfied because a decrease in cell survival rate by doxetaxel in SKOV3-TR was further promoted at a high concentration (2 μM) of the S-forms as compared to a low concentration (0.5 μM) of the S-forms. […]

Assay [2] relates to SKOV3. The assay is described as follows: Crystal violet staining, cell survival rate and cell count, parental line. Conditions: 0.05 μM paclitaxel or 0.5 μM doxetaxel, 3 days, compared to None or DMSO-treated groups. Here is the method: as §1, with “For cellular metabolism analysis, WST-1 analyses were performed after 3 days of the combined treatment with paclitaxel and S-forms.” left out
The two cell lines growing on a 12-well plate were pretreated with an S-form at a low concentration (0.5 μM) and a high concentration (2 μM) for 4 hours, and the SKOV3-TR cell line was then treated with 0.9 μM doxetaxel, and the SKOV3 cell line was treated with 0.5 μM doxetaxel. For the morphological analysis of the cells, the cells treated with None (a group that was treated with nothing), DMSO (a doxetaxel solvent), ethanol (EtOH) (an S-form solvent), DMSO+EtOH, doxetaxel, doxetaxel+ethanol (Doxetaxel+EtOH), and S-forms were analyzed after 1, 2, and 3 days, and images were captured. […]

The test system of assay [3] is SKOV3-TR. The experiment in a line: WST-1 analysis of cellular metabolism, resistant line. Conditions: 4 μM paclitaxel or 0.9 μM doxetaxel, 3 days, compared to None or DMSO-treated groups. Here is the method:
(§2) A cell experiment was performed on an epithelial ovarian cancer cell line SKOV3 and SKOV3-TR which is derived therefrom and produced as a resistant cancer cell line to having resistance to the anticancer drug paclitaxel.
as §1, with “For cellular metabolism analysis, WST-1 analyses were performed after 3 days of the combined treatment with paclitaxel and S-forms.” left out
(§3) The two cell lines growing on a 12-well plate were pretreated with an S-form at a low concentration (0.5 μM) and a high concentration (2 μM) for 4 hours, and the SKOV3-TR cell line was then treated with 0.9 μM doxetaxel, and the SKOV3 cell line was treated with 0.5 μM doxetaxel. […] The cell survival rates were analyzed on the same experimental groups using a crystal violet staining method. […]

The subject of assay [4] is SKOV3. The assay is described as follows: WST-1 analysis of cellular metabolism, parental line. The following applies: 0.05 μM paclitaxel or 0.5 μM doxetaxel, 3 days, compared to None or DMSO-treated groups. Here is the method:
as §2
as §1, with “For cellular metabolism analysis, WST-1 analyses were performed after 3 days of the combined treatment with paclitaxel and S-forms.” left out
as §3

With `CCc1sc2ccccc2c1CN1CCN2C(=O)CNC(=O)C2C1` (stereo not drawn) [S101, 2-((2-ethylbenzothiophene-3-yl)methyl)hexahydro-2H-pyrazino[1,2-a]pyrazine-6,9-dione], in the assay with SKOV3-TR [1], the “anticancer-enhancing effect of doxetaxel, optical density at 570 nm (crystal violet)” value is recorded as “exhibited the anticancer-enhancing effect” and the “anticancer-enhancing effect of paclitaxel, optical density at 570 nm (crystal violet)” value was “exhibited the anticancer-enhancing effect”.

Turning to `CCc1sc2ccccc2c1CN1CCN2C(=O)C(C3CCCCC3)NC(=O)C2C1` (stereo not drawn) [S105], in the assay with SKOV3-TR [1], the “anticancer-enhancing effect of doxetaxel, optical density at 570 nm (crystal violet)” value is listed as “exhibited the anticancer-enhancing effect” and the “anticancer-enhancing effect of paclitaxel, optical density at 570 nm (crystal violet)” value is given as “exhibited the anticancer-enhancing effect”.

Turning to `CC(=O)O[C@@]12CO[C@@H]1C[C@H](O)[C@@]1(C)C(=O)[C@H](O)C3=C(C)[C@@H](OC(=O)[C@H](O)[C@@H](NC(=O)OC(C)(C)C)c4ccccc4)C[C@@](O)([C@@H](OC(=O)c4ccccc4)[C@H]21)C3(C)C` [doxetaxel], the “optical density at 570 nm (crystal violet), anticancer drug alone” value in the assay with SKOV3 [2] and in the assay with SKOV3-TR [1] was “reduced” in each case. For the same molecule, the “optical density at 450 nm (WST-1), anticancer drug alone” value in the assay on SKOV3-TR [3] and in the assay on SKOV3 [4] was “reduced” in each case.

As for `CC(=O)O[C@H]1C(=O)[C@@]2(C)[C@H]([C@H](OC(=O)c3ccccc3)[C@]3(O)C[C@H](OC(=O)[C@H](O)[C@@H](NC(=O)c4ccccc4)c4ccccc4)C(C)=C1C3(C)C)[C@]1(OC(C)=O)CO[C@@H]1C[C@@H]2O` [paclitaxel], the “optical density at 570 nm (crystal violet), anticancer drug alone” value in the assay with SKOV3 [2] and in the assay with SKOV3-TR [1] was “reduced” throughout. The “optical density at 450 nm (WST-1), anticancer drug alone” value in the assay on SKOV3-TR [3] and in the assay with SKOV3 [4] was “reduced” throughout.
